Patent US5817639A, “Purine 4'-thioarabinonucleosides” (Yamasa Corporation, priority 1995, dated 1998)
Values after ≈ are worked out from the molar mass of the structure shown.

Key:
[1] = tested on: HCMV (AD-169 strain); assay: Anti-Human Cytomegalovirus activity (plaque formation inhibition in human fetal lung fibroblasts); type: cell-based; conditions: Human betaherpesvirus 5, AD169, Fibroblast, 50% inhibition of plaque formation, human fibroblasts derived from fetal lungs, 4 days plus further 4-5 days, read-out: ED50 HCMV
Description: (§1) 1. Human fibroblasts derived from fetal lungs were subjected to subculturing in Eagle MEM supplemented with 10% semi-fetal calf serum (Mitsubishi Chemical Corporation) at a 1:2-4 split every 4 days.
2. A suspension of cells obtained by splitting their parent cells (1:2) was seeded in a 12-well multi-plate (2 ml/well), followed by culturing for 4 days at 37° C. in a CO2 -incubator.
3. The culture liquid was discarded, and 750 μl of a 5% serum-added Eagle MEM containing 50-100 PFU of AD-169 strain of HCMV was inoculated, and the virus was allowed to be adsorbed for 1 hour at 37° C.
4. Without removing the virus, 750 μl of Hanks' MEM containing the test compound was added, and the resultant mixture was incubated in a CO2 -incubator at 37° C. for 4 days. Generally, a test compound is diluted in serial 1/2 log10, and the maximal concentration is 10 μg/ml.
5. The medium was changed to a fresh 2.5% serum-added Eagle MEM containing 0.8% methylcellulose and the test compound having the same concentration, followed by culturing further for 4-5 days.
(§2) 6. The culture liquid was discarded, and the cells were stained with May-Gruenwald's-Giemsa (×10). Under a stereoscopic light microscope, the number of plaques in each well was counted. Using the equation used in (1) above, the plaque formation inhibitory ratio was obtained.
7. […]

[2] = tested on: HSV-2 (MS strain); assay: Anti-HSV-2 activity (plaque formation inhibition in human fetal lung fibroblasts); type: cell-based, herpes simplex virus type 2; conditions: Human alphaherpesvirus 2, Fibroblast, 50% inhibition of plaque formation, human fibroblasts derived from fetal lungs, 2-3 days at 37° C., read-out: ED50 HSV-2
Description: (§3) 1. Human fibroblasts derived from fetal lungs were subjected to subculturing in Eagle MEM supplemented with 10% semi-fetal calf serum (Mitsubishi Chemical Corporation) at a 1:2-4 split every 4 days. 2. A suspension of cells obtained by splitting their parent cells (1:2) was seeded in a 12-well multi-plate (2 ml/well), followed by culturing for 4-5 days at 37° C. in a CO2 -incubator. 3. The culture liquid was discarded, and Hanks' MEM (250 μl) containing 50-150 PFU of VR-3 strain of HSV-1 or MS strain of HSV-2 was inoculated, and the virus was allowed to be adsorbed for 30 minutes at 37° C. Thereafter, the viral liquid was discarded. 4. A 2.5% serum-added Eagle MEM containing a test compound and 0.8% methylcellulose was added and the resultant mixture was incubated in a CO2 -incubator for 2-3 days at 37° C. Generally, a test compound is diluted in serial 1/2 log10, and the maximal concentration is 10 μg/ml. 5. The culture liquid was discarded, and the cells were stained with a 0.5% crystal violet solution. Under a stereoscopic light microscope, the number of plaques in each well was counted. Using the equation below, the plaque formation inhibitory ratio (percent inhibition) was obtained. […]

[3] = tested on: HSV-1 (VR-3 strain); assay: Anti-HSV-1 activity (plaque formation inhibition in human fetal lung fibroblasts); type: cell-based, herpes simplex virus type 1; conditions: Human alphaherpesvirus 1, Fibroblast, 50% inhibition of plaque formation, human fibroblasts derived from fetal lungs, 2-3 days at 37° C., read-out: ED50 HSV-1
Description: as §3

[4] = tested on: VZV (Oka strain); assay: Anti-Varicella Zoster Virus (VZV) activity (plaque formation inhibition in human fetal lung fibroblasts); type: cell-based; conditions: Human alphaherpesvirus 3, Fibroblast, read-out: ED50 VZV
Description: as §1
2. A suspension of cells obtained by splitting their parent cells (1:2) was seeded in a 12-well multi-plate (2 ml/well), followed by culturing for 4-5 days at 37° C. in a CO2 -incubator.
3. The culture liquid was discarded, and 750 μl of a 5% serum-added Eagle MEM containing 50-100 PFU of Oka strain of VZV was inoculated, and the virus was allowed to be adsorbed for 1 hour at 37° C.
4. Without removing the virus, 750 μl of Hanks' MEM containing the test compound was added, and the resultant mixture was incubated in a CO2 -incubator at 37° C. Generally, a test compound is diluted in serial 1/2 log10, and the maximal concentration is 10 μg/ml.
as §2, with “5. After culturing for 4-5 days, the” for “6. The”, “a 0.5% crystal violet solution.” for “May-Gruenwald's-Giemsa (×10).”
6. The plaque formation inhibitory ratio was plotted on a graph with respect to the concentration of the test compound (logarithmic representation).

Nc1nc(N)c2ncn([C@@H]3S[C@H](CO)[C@@H](O)[C@@H]3O)c2n1 [Ia-β, 9-(4-thio-β-D-arabinofuranosyl)-2,6-diaminopurine]
EC50 [1]: 0.022 µg/mL | EC50 [2]: 0.4 µg/mL (≈ 1.34 µM) | EC50 [3]: 0.52 µg/mL (≈ 1.74 µM) | EC50 [4]: 0.11 µg/mL (≈ 0.369 µM)

Nc1nc2c(ncn2[C@@H]2S[C@H](CO)[C@@H](O)[C@@H]2O)c(=O)[nH]1 [Ib-β, 9-(4-thio-δ-D-arabinofuranosyl)guanine]
EC50 [1]: 0.011 µg/mL | EC50 [2]: 0.59 µg/mL (≈ 1.97 µM) | EC50 [3]: 0.49 µg/mL (≈ 1.64 µM) | EC50 [4]: 0.11 µg/mL (≈ 0.368 µM)
